In patent publication US10927111B2, “Inhibitors of RAF kinases” (Kinnate Biopharma Inc., priority 2019, dated 2021):

biological target: human RAF1 (Homo sapiens (Human), UniProt P04049); test: Protein kinase assay (radiometric 33P-ATP, MEK1 (K97R) substrate); format: biochemical; settings: human MEK1 (K97R) substrate 3 micromolar, ATP 10 micromolar, 10-dose IC50 mode; read-out: RAF-1 IC50
Protocol: Protein kinase assay: Assay platform was used to measure kinase/inhibitor interactions as described previously (Anastassiadis et al., 2011). In brief, for each reaction, kinase and substrate were mixed in a buffer containing 20 mM HEPES (pH 7.5), 10 mM MgCl2, 1 mM EGTA, 0.02% Brij35, 0.02 mg/mL BSA, 0.1 mM Na3VO4, 2 mM DTT, and 1% DMSO. All compounds were solubilized in DMSO. Compounds were then added to each reaction mixture via acoustic dispense using an ECHO 550 nanoliter dispenser. For human RAF1 testing, human MEK1 (K97R) was used as a substrate at a concentration of 3 micromolar, with a final ATP concentration of 10 micromolar. For human BRAF testing, human MEK1 (K97R) was used as a substrate at 1 micromolar concentration, with a final ATP concentration of 25 micromolar. […] After a 20-min incubation, ATP (Sigma-Aldrich, St. Louis, Mo. 63178) and [g33P] ATP (specific activity 10 microCi/microliter) purchased at PerkinElmer (Boston, Mass., 02118 Cat #BLU 003H250UC) were added at a final total concentration of 10 mM. Reactions were carried out at room temperature for 2 hr and spotted onto P81 ionexchange cellulose chromatography paper (Reaction Biology). Filter paper was washed in 0.75% phosphoric acid to remove unincorporated ATP. The percent remaining kinase activity relative to a vehicle-containing (DMSO) kinase reaction was calculated for each kinase/inhibitor pair. IC50 values were calculated using Prism 5 (GraphPad).

Chain of human RAF1 (P04049 whole entry): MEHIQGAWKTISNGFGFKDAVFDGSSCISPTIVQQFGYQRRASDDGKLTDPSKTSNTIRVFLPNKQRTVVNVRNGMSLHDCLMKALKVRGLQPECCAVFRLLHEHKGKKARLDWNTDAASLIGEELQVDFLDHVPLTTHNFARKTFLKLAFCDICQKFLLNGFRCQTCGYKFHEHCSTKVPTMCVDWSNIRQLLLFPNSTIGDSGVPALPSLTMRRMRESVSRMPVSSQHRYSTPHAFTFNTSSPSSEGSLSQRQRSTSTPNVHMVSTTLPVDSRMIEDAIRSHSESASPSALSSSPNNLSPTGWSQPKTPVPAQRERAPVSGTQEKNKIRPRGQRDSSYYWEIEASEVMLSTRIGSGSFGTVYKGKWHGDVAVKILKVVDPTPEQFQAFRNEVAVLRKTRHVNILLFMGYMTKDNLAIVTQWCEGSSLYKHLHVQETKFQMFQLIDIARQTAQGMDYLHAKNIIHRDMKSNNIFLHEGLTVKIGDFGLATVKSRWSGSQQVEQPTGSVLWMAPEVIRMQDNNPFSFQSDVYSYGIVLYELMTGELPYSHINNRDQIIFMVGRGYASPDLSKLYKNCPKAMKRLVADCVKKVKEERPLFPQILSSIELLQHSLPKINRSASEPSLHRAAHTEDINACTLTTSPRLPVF

| Compound | IC50 [nM] |
| --- | --- |
| CNc1ncc2cc(-c3cc(NC(=O)N4CCC(C(F)(F)F)C4)ccc3C)cnc2n1 (stereo in doubt) [Example 54, (3R)—N-[4-methyl-3-[2-(methylamino)pyrido[2,3-d]pyrimidin-6-yl]phenyl]3(trifluoromethyl)pyrrolidine-1-carboxamide] | ≤ 10 |
| CNc1ncc2cc(-c3cc(NC(=O)N4CC[C@@H](C(F)(F)F)C4)c(F)cc3C)c(C)nc2n1 [Example 2, (R)-N-(2-fluoro-4-methyl-5-(7-methyl-2-(methylamino)pyrido[2,3-d]pyrimidin-6-yl)phenyl)-3-(trifluoromethyl)pyrrolidine-1-carboxamide] | ≤ 10 |
| CNc1ncc2cc(-c3cc(NC(=O)N4CC=C(C(F)(F)F)C4)c(F)cc3C)c(C)nc2n1 [Example 3, N-(2-fluoro-4-methyl-5-(7-methyl-2-(methylamino)pyrido[2,3-d]pyrimidin-6-yl)phenyl)-3-(trifluoromethyl)-2,5-dihydro-1H-pyrrole-1-carboxamide] | ≤ 10 |
| CNc1ncc2cc(-c3cc(NC(=O)c4ccnc(C(F)(F)F)c4)c(F)cc3C)c(C)nc2n1 [Example 7, N-[2-fluoro-4-methyl-5-[7-methyl-2-(methylamino)pyrido[2,3-d]pyrimidin-6-yl]phenyl]-2-(trifluoromethyl) pyridine-4-carboxamide] | ≤ 10 |
| CNc1ncc2cc(-c3cc(NC(=O)N4CCO[C@@H](C(F)(F)F)C4)c(F)cc3C)c(C)nc2n1 [Example 10, (2R)-N-[2-fluoro-4-methyl-5-[7-methyl-2-(methylamino)pyrido[2,3-d]pyrimidin-6-yl]phenyl]-2-(trifluoromethyl)morpholine-4-carboxamide] | ≤ 10 |
| CNc1ncc2cc(-c3cc(NC(=O)N4CCO[C@H](C(F)(F)F)C4)c(F)cc3C)c(C)nc2n1 [Example 11, (2S)-N-[2-fluoro-4-methyl-5-[7-methyl-2-(methylamino)pyrido[2,3-d]pyrimidin-6-yl]phenyl]-2-(trifluoromethyl)morpholine-4-carboxamide] | ≤ 10 |
| CNc1ncc2cc(-c3cc(NC(=O)N4CCO[C@@H](C(F)(F)F)C4)ccc3C)c(C)nc2n1 [Example 12, (2R)-N-[4-methyl-3-[7-methyl-2-(methylamino)pyrido[2,3-d]pyrimidin-6-yl]phenyl]-2-(trifluoromethyl)morpholine-4-carboxamide] | ≤ 10 |
| CNc1ncc2cc(-c3cc(NC(=O)N4CCO[C@H](C(F)(F)F)C4)ccc3C)c(C)nc2n1 [Example 13] | ≤ 10 |
| CNc1ncc2cc(-c3cc(NC(=O)N4CCC(C(F)(F)F)C4)ccc3C)c(C)nc2n1 (stereo not drawn) [Example 14, N-(4-methyl-3-(7-methyl-2-(methylamino)pyrido[2,3-d]pyrimidin-6-yl)phenyl)-3-(trifluoromethyl)pyrrolidine-1-carboxamide] | ≤ 10 |
| CNc1ncc2cc(-c3cc(NC(=O)N4CCC5(CCC(F)(F)C5)C4)c(F)cc3C)c(C)nc2n1 (stereo not drawn) [Example 15, 7,7-difluoro-N-(2-fluoro-4-methyl-5-(7-methyl-2-(methylamino)pyrido[2,3-d]pyrimidin-6-yl)phenyl)-2-azaspiro[4.4]nonane-2-carboxamide] | ≤ 10 |
| CNc1ncc2cc(-c3cc(NC(=O)N4CC=C(C(F)(F)F)C4)ccc3C)c(C)nc2n1 [Example 16, N-(4-methyl-3-(7-methyl-2-(methylamino)pyrido[2,3-d]pyrimidin-6-yl)phenyl)-3-(trifluoromethyl)-2,5-dihydro-1H-pyrrole-1-carboxamide] | ≤ 10 |
| CNc1ncc2cc(-c3cc(NC(=O)N4CC[C@H](CC(F)(F)F)C4)c(F)cc3C)c(C)nc2n1 [Example 17, (R)-N-(2-fluoro-4-methyl-5-(7-methyl-2-(methylamino)pyrido[2,3-d]pyrimidin-6-yl)phenyl)-3-(2,2,2-trifluoroethyl)pyrrolidine-1-carboxamide] | ≤ 10 |
| CNc1ncc2cc(-c3cc(NC(=O)N4CC[C@H](CC(F)(F)F)C4)ccc3C)c(C)nc2n1 [Example 19, (R)-N-(4-methyl-3-(7-methyl-2-(methylamino)pyrido[2,3-d]pyrimidin-6-yl)phenyl)-3-(2,2,2-trifluoroethyl)pyrrolidine-1-carboxamide] | ≤ 10 |
| CNc1ncc2cc(-c3cc(NC(=O)N4CC[C@@H](CC(F)(F)F)C4)ccc3C)c(C)nc2n1 [Example 20, (S)-N-(4-methyl-3-(7-methyl-2-(methylamino)pyrido[2,3-d]pyrimidin-6-yl)phenyl)-3-(2,2,2-trifluoroethyl)pyrrolidine-1-carboxamide] | ≤ 10 |
| CNc1ncc2cc(-c3cc(NC(=O)N4CCC(C(C)(C)C)C4)c(F)cc3C)c(C)nc2n1 (stereo not drawn) [Example 21, 3-(tert-butyl)-N-(2-fluoro-4-methyl-5-(7-methyl-2-(methylamino)pyrido[2,3-d]pyrimidin-6-yl)phenyl)pyrrolidine-1-carboxamide] | ≤ 10 |
| CNc1ncc2cc(-c3cc(NC(=O)N4CCn5cnc(C(F)(F)F)c5C4)ccc3C)c(C)nc2n1 [Example 24, N-(4-methyl-3-(7-methyl-2-(methylamino)pyrido[2,3-d]pyrimidin-6-yl)phenyl)-1-(trifluoromethyl)-5,6-dihydroimidazo[l,5-a]pyrazine-7(8H)-carboxamide] | ≤ 10 |

same assay, conditions: read-out: RAF-1 IC50

| Compound | IC50 [nM] |
| --- | --- |
| CNc1ncc2cc(-c3cc(NC(=O)N4CCC(C(F)(F)F)C4)ccc3C)cnc2n1 (stereo in doubt) [Example 55, (3S)—N-[4-methyl-3-[2-(methylamino)pyrido[2,3-d]pyrimidin-6-yl]phenyl]-3-(trifluoromethyl)pyrrolidine-1-carboxamide] | ≤ 10 |
| CNc1ncc2cc(-c3cc(NC(=O)N4CC[C@@H](SC(F)(F)F)C4)ccc3C)c(C)nc2n1 [Example 4] | 10 to 100 |
| CNc1ncc2cc(-c3cc(NC(=O)N4CC[C@H](SC(F)(F)F)C4)ccc3C)c(C)nc2n1 [Example 5] | 10 to 100 |
| CNc1ncc2cc(-c3cc(NC(=O)c4ccnc(C(F)(F)F)c4)ccc3C)c(C)nc2n1 [Example 6, N-[4-methyl-3-[7-methyl-2-(methylamino)pyrido[2,3-d]pyrimidin-6-yl]phenyl]-2-(trifluoromethyl)pyridine-4-carboxamide] | ≤ 10 |
| CNc1ncc2cc(-c3cc(NC(=O)N4CC[C@@H](CC(F)(F)F)C4)c(F)cc3C)c(C)nc2n1 [Example 18, (S)-N-(2-fluoro-4-methyl-5-(7-methyl-2-(methylamino)pyrido[2,3-d]pyrimidin-6-yl)phenyl)-3-(2,2,2-trifluoroethyl)pyrrolidine-1-carboxamide] | ≤ 10 |
| CNc1ncc2cc(-c3cc(NC(=O)N4CCO[C@H](C(C)(C)C)C4)c(F)cc3C)c(C)nc2n1 [Example 22, (R)-2-(tert-butyl)-N-(2-fluoro-4-methyl-5-(7-methyl-2-(methylamino)pyrido[2,3-d]pyrimidin-6-yl)phenyl)morpholine-4-carboxamide] | ≤ 10 |
| CNc1ncc2cc(-c3cc(NC(=O)N4CCO[C@@H](C(C)(C)C)C4)c(F)cc3C)c(C)nc2n1 [Example 23, (S)-2-(tert-butyl)-N-(2-fluoro-4-methyl-5-(7-methyl-2-(methylamino)pyrido[2,3-d]pyrimidin-6-yl)phenyl)morpholine-4-carboxamide] | ≤ 10 |
| CNc1ncc2cc(-c3cc(NC(=O)N4CCO[C@H](CC(F)(F)F)C4)c(F)cc3C)c(C)nc2n1 [Example 25, (R)-N-(2-fluoro-4-methyl-5-(7-methyl-2-(methylamino)pyrido[2,3-d]pyrimidin-6-yl)phenyl)-2-(2,2,2-trifluoroethyl)morpholine-4-carboxamide] | ≤ 10 |
